From ChEMBL document CHEMBL4308841, “Synthesis, in vitro antiproliferative activity, and kinase inhibitory effects of pyrazole-containing diarylureas and diarylamides” (Eur J Med Chem, 2018)

Legend:
[1] = test system: HL-60(TB); experiment: Growth inhibition of human HL-60(TB) cells assessed as cell growth at 10 uM incubated for 48 hrs by sulforhodamine B assay relative to control; assay type: functional; details: HL-60, 48 h, read-out: Activity
[2] = test system: ACHN; experiment: Growth inhibition of human ACHN cells incubated for 48 hrs by sulforhodamine B assay; assay type: functional, cell-based
[3] = test system: SF-295; experiment: Growth inhibition of human SF295 cells assessed as cell growth at 10 uM incubated for 48 hrs by sulforhodamine B assay relative to control; assay type: functional; details: SF-295, 48 h, read-out: Activity
[4] = test system: SK-OV-3; experiment: Growth inhibition of human SKOV3 cells assessed as cell growth at 10 uM incubated for 48 hrs by sulforhodamine B assay relative to control; assay type: functional; details: SK-OV-3, 48 h, read-out: Activity
[5] = test system: Hs-578T; experiment: Growth inhibition of human Hs578T cells assessed as cell growth at 10 uM incubated for 48 hrs by sulforhodamine B assay relative to control; assay type: functional; details: read-out: Activity
[6] = test system: NCI/ADR-RES; experiment: Growth inhibition of human NCI/ADR-RES cells assessed as cell growth at 10 uM incubated for 48 hrs by sulforhodamine B assay relative to control; assay type: functional; details: read-out: Activity
[7] = test system: SF-268; experiment: Growth inhibition of human SF268 cells assessed as cell growth at 10 uM incubated for 48 hrs by sulforhodamine B assay relative to control; assay type: functional; details: SF-268, 48 h, read-out: Activity
[8] = test system: MDA-MB-468; experiment: Growth inhibition of human MDA-MB-468 cells assessed as cell growth at 100 uM incubated for 48 hrs by sulforhodamine B assay relative to control; assay type: functional; details: MDA-MB-468, 48 h, read-out: Activity
[9] = test system: HCT-15; experiment: Growth inhibition of human HCT15 cells assessed as cell growth at 10 uM incubated for 48 hrs by sulforhodamine B assay relative to control; assay type: functional; details: HCT-15, 48 h, read-out: Activity
[10] = test system: MDA-MB-435; experiment: Growth inhibition of human MDA-MB-435 cells assessed as cell growth at 10 uM incubated for 48 hrs by sulforhodamine B assay relative to control; assay type: functional; details: MDA-MB-435, 48 h, read-out: Activity
[11] = test system: LOX IMVI; experiment: Growth inhibition of human LOXIMVI cells assessed as cell growth at 10 uM incubated for 48 hrs by sulforhodamine B assay relative to control; assay type: functional; details: read-out: Activity
[12] = test system: ACHN; experiment: Growth inhibition of human ACHN cells assessed as cell growth at 100 uM incubated for 48 hrs by sulforhodamine B assay relative to control; assay type: functional; details: read-out: Activity
[13] = test system: MDA-MB-468; experiment: Growth inhibition of human MDA-MB-468 cells assessed as cell growth at 10 uM incubated for 48 hrs by sulforhodamine B assay relative to control; assay type: functional; details: MDA-MB-468, 48 h, read-out: Activity
[14] = test system: OVCAR-8; experiment: Growth inhibition of human OVCAR8 cells assessed as cell growth at 10 uM incubated for 48 hrs by sulforhodamine B assay relative to control; assay type: functional; details: OVCAR-8, 48 h, read-out: Activity
[15] = test system: M14; experiment: Growth inhibition of human M14 cells assessed as cell growth at 10 uM incubated for 48 hrs by sulforhodamine B assay relative to control; assay type: functional; details: M14, 48 h, read-out: Activity
[16] = test system: UACC-257; experiment: Growth inhibition of human UACC257 cells assessed as cell growth at 10 uM incubated for 48 hrs by sulforhodamine B assay relative to control; assay type: functional; details: UACC-257, 48 h, read-out: Activity
[17] = test system: K562; experiment: Growth inhibition of human K562 cells assessed as cell growth at 10 uM incubated for 48 hrs by sulforhodamine B assay relative to control; assay type: functional; details: K562, 48 h, read-out: Activity
[18] = test system: HOP-62; experiment: Growth inhibition of human HOP62 cells assessed as cell growth at 10 uM incubated for 48 hrs by sulforhodamine B assay relative to control; assay type: functional; details: HOP-62, 48 h, read-out: Activity
[19] = test system: U-251; experiment: Growth inhibition of human U251 cells incubated for 48 hrs by sulforhodamine B assay; assay type: functional, cell-based; details: U-251, 48 h
[20] = test system: RPMI-8226; experiment: Growth inhibition of human RPMI8226 cells assessed as cell growth at 10 uM incubated for 48 hrs by sulforhodamine B assay relative to control; assay type: functional; details: RPMI-8226, 48 h, read-out: Activity
[21] = test system: UACC-62; experiment: Growth inhibition of human UACC62 cells assessed as cell growth at 0.1 uM incubated for 48 hrs by sulforhodamine B assay relative to control; assay type: functional; details: UACC-62, 48 h, read-out: Activity
[22] = test system: HCC 2998; experiment: Growth inhibition of human HCC2998 cells assessed as cell growth at 10 uM incubated for 48 hrs by sulforhodamine B assay relative to control; assay type: functional; details: HCC 2998, 48 h, read-out: Activity
[23] = test system: SNB-19; experiment: Growth inhibition of human SNB19 cells assessed as cell growth at 10 uM incubated for 48 hrs by sulforhodamine B assay relative to control; assay type: functional; details: SNB-19, 48 h, read-out: Activity
[24] = test system: Malme-3M; experiment: Growth inhibition of human MALME-3M cells assessed as cell growth at 10 uM incubated for 48 hrs by sulforhodamine B assay relative to control; assay type: functional; details: read-out: Activity
[25] = test system: OVCAR-4; experiment: Growth inhibition of human OVCAR4 cells assessed as cell growth at 10 uM incubated for 48 hrs by sulforhodamine B assay relative to control; assay type: functional; details: OVCAR-4, 48 h, read-out: Activity
[26] = test system: UO-31; experiment: Growth inhibition of human UO31 cells assessed as cell growth at 0.01 uM incubated for 48 hrs by sulforhodamine B assay relative to control; assay type: functional; details: UO-31, 48 h, read-out: Activity
[27] = test system: U-251; experiment: Growth inhibition of human U251 cells assessed as cell growth at 1 uM incubated for 48 hrs by sulforhodamine B assay relative to control; assay type: functional; details: U-251, 48 h, read-out: Activity
[28] = test system: SR; experiment: Growth inhibition of human SR cells assessed as cell growth at 10 uM incubated for 48 hrs by sulforhodamine B assay relative to control; assay type: functional; details: read-out: Activity
[29] = test system: OVCAR-4; experiment: Growth inhibition of human OVCAR4 cells incubated for 48 hrs by sulforhodamine B assay; assay type: functional, cell-based; details: OVCAR-4, 48 h
[30] = test system: M14; experiment: Growth inhibition of human M14 cells assessed as cell growth at 0.01 uM incubated for 48 hrs by sulforhodamine B assay relative to control; assay type: functional; details: M14, 48 h, read-out: Activity
[31] = test system: HCC 2998; experiment: Growth inhibition of human HCC2998 cells incubated for 48 hrs by sulforhodamine B assay; assay type: functional, cell-based; details: HCC 2998, 48 h
[32] = read-out: LC50 (the source's name)
[33] = read-out: pLC50 (the source's name) (converted)

O=C(Nc1cccc(-n2cc(-c3ccncc3)c(-c3cc(O)cc(Cl)c3)n2)c1)c1ccc(N2CCOCC2)c(C(F)(F)F)c1
growth at 10 µM [1]: -46.4% | GI50 ([2]; read-out: GI50): 1.54 µM | CC50 [2, 32]: > 100 µM | TGI ([2]; read-out: TGI): 29.3 µM | GI50 ([2]; read-out: pGI50 (converted)): 1.82 µM | CC50 [2, 33]: > 100 µM | TGI ([2]; read-out: pTGI (converted)): 29.5 µM | growth at 10 µM [3]: -35.4% | growth at 10 µM [4]: 50.7% | growth at 10 µM [5]: 17.9% | growth at 10 µM [6]: 35% | growth at 10 µM [7]: 52.7% | growth at 100 µM [8]: -15% | growth at 10 µM [9]: 6.25% | growth at 10 µM [10]: 23% | growth at 10 µM [11]: -48.7% | growth at 100 µM [12]: -20% | growth at 10 µM [13]: 26% | growth at 10 µM [14]: 22.7% | growth at 10 µM [15]: -20.7% | growth at 10 µM [16]: 9.38% | growth at 10 µM [17]: -15.5% | growth at 10 µM [18]: -2.19% | IC50 [19]: 1.4 µM | GI50 ([19]; read-out: GI50): 1.43 µM | CC50 [19, 32]: 44 µM | TGI ([19]; read-out: TGI): 6.3 µM | GI50 ([19]; read-out: pGI50 (converted)): 1.41 µM | CC50 [19, 33]: 43.7 µM | TGI ([19]; read-out: pTGI (converted)): 6.31 µM | growth at 10 µM [20]: -3.77% | growth at 0.1 µM [21]: 91% | growth at 10 µM [22]: -3.65% | growth at 10 µM [23]: 12.1% | growth at 10 µM [24]: -26.9% | growth at 10 µM [25]: 77.1% | growth at 0.01 µM [26]: 85% | growth at 1 µM [27]: 51% | growth at 10 µM [28]: -12.4% | GI50 ([29]; read-out: GI50): > 100 µM | CC50 [29, 32]: > 100 µM | TGI ([29]; read-out: TGI): > 100 µM | GI50 ([29]; read-out: pGI50 (converted)): > 100 µM | CC50 [29, 33]: > 100 µM | TGI ([29]; read-out: pTGI (converted)): > 100 µM | growth at 0.01 µM [30]: 95% | GI50 ([31]; read-out: GI50): 1.52 µM | CC50 [31, 32]: > 100 µM | TGI ([31]; read-out: TGI): 79.5 µM | GI50 ([31]; read-out: pGI50 (converted)): 1.82 µM | CC50 [31, 33]: > 100 µM | TGI ([31]; read-out: pTGI (converted)): 7.94 µM

O=C(Nc1cccc(-n2cc(-c3ccncc3)c(-c3cc(O)cc(Cl)c3)n2)c1)Nc1ccc(Cl)c(C(F)(F)F)c1
growth at 10 µM [1]: -26.9% | GI50 ([2]; read-out: GI50): 3.1 µM | CC50 [2, 32]: > 100 µM | TGI ([2]; read-out: TGI): 15.3 µM | GI50 ([2]; read-out: pGI50 (converted)): 3.09 µM | CC50 [2, 33]: > 100 µM | TGI ([2]; read-out: pTGI (converted)): 15.1 µM | growth at 10 µM [3]: 14.3% | growth at 10 µM [4]: 63.1% | growth at 10 µM [5]: 21.7% | growth at 10 µM [6]: 41.5% | growth at 10 µM [7]: 42.1% | growth at 100 µM [8]: -29% | growth at 10 µM [9]: 5.79% | growth at 10 µM [10]: 9.57% | growth at 10 µM [11]: 2.08% | growth at 100 µM [12]: -25% | growth at 10 µM [13]: 5.22% | growth at 10 µM [14]: 3.69% | growth at 10 µM [15]: -16.8% | growth at 10 µM [16]: -40% | growth at 10 µM [17]: 5.24% | growth at 10 µM [18]: 8.99% | IC50 [19]: 1.72 µM | GI50 ([19]; read-out: GI50): 1.72 µM | CC50 [19, 32]: 77.5 µM | TGI ([19]; read-out: TGI): 30 µM | GI50 ([19]; read-out: pGI50 (converted)): 1.74 µM | CC50 [19, 33]: 7.76 µM | TGI ([19]; read-out: pTGI (converted)): 3.63 µM | growth at 10 µM [20]: 13.8% | growth at 0.1 µM [21]: 102% | growth at 10 µM [22]: 34.3% | growth at 10 µM [23]: 44.5% | growth at 10 µM [24]: -24.9% | growth at 10 µM [25]: 31.6% | growth at 0.01 µM [26]: 93% | growth at 1 µM [27]: 56% | growth at 10 µM [28]: -30.6% | GI50 ([29]; read-out: GI50): 3.21 µM | CC50 [29, 32]: > 100 µM | TGI ([29]; read-out: TGI): 92.3 µM | GI50 ([29]; read-out: pGI50 (converted)): 3.24 µM | CC50 [29, 33]: > 100 µM | TGI ([29]; read-out: pTGI (converted)): 9.33 µM | growth at 0.01 µM [30]: 97% | GI50 ([31]; read-out: GI50): 3.93 µM | CC50 [31, 32]: 43 µM | TGI ([31]; read-out: TGI): 13.4 µM | GI50 ([31]; read-out: pGI50 (converted)): 3.89 µM | CC50 [31, 33]: 42.7 µM | TGI ([31]; read-out: pTGI (converted)): 13.5 µM
